Counter-ions that a name gives are not always drawn.

Here are results for 40 compounds from US20110312934A1, “2-ALKYL-6-CYCLOAMINO-3-(PYRIDIN-4-YL)IMIDAZO[1,2-B]-PYRIDAZINE DERIVATIVES, PREPARATION THEREOF, AND THERAPEUTIC APPLICATION THEREOF” (SANOFI-AVENTIS, priority 2008, published 2011).

As for `Cc1nc2ccc(N3C[C@@H]4C[C@H]3CN4)nn2c1-c1ccncc1`, the melting point was 120 °C (dec.).

The compound `Cc1cc(-c2c(C)nc3ccc(N4C[C@@H]5C[C@@H]4CN5)nn23)ccn1` (as salt: HBr) came in with a melting point of over 300 °C.

`Cc1cc(-c2c(C)nc3ccc(N4CCC5(CCCNC5)CC4)nn23)ccn1` (as salt: HCl) came in with a melting point of over 295 °C.

Consider `Cc1nc2ccc(N3CCC4(CC3)CNCCO4)nn2c1-c1ccncc1` (as salt: HCl), for which the melting point is over 255 °C.

Compound `Cc1nc2ccc(N3CCC4(CC3)CNCCO4)nn2c1-c1ccnc(N)c1` (as salt: HCl) gave a melting point of over 300 °C.

Take `Cc1nc2ccc(N3CCNCC3)nn2c1-c1ccncc1` (as salt: HCl) [Compound 2, 2-Methyl-6-piperazin-1-yl-3-pyridin-4-yl-imidazo[1,2-b]pyridazine]: the melting point fell in the range of 319 to 321 °C.

Compound `CCN1CCN(c2ccc3nc(C)c(-c4ccncc4)n3n2)CC1` (as salt: HCl) [Compound 42, 6-(4-Ethylpiperazin-1-yl)-2-methyl-3-pyridin-4-ylimidazo[1,2-b]pyridazine] registered a melting point of 305 to 307 °C.

In the case of `Cc1nc2ccc(N3C[C@@H](C)N[C@@H](C)C3)nn2c1-c1ccncc1` (as salt: HCl) [Compound 54, 6-(cis-3,5-Dimethylpiperazin-1-yl)-2-methyl-3-pyridin-4-ylimidazo[1,2-b]pyridazine], the melting point was in the range of 343 to 345 °C.

Consider `Cc1cc(-c2c(C)nc3ccc(N4CC5CNCC5C4)nn23)ccn1` (stereo not shown) (as salt: HCl) [Compound 67, 6-Hexahydropyrrolo[3,4-c]pyrrol-2(1H)-yl-2-methyl-3-(2-methylpyridin-4-yl)-imidazo[1,2-b]-pyridazine], for which the melting point was 214 to 221 °C.

`Cc1nc2ccc(N3CCNCC3)nn2c1-c1ccnc(F)c1` [Compound 3, 3-(2-Fluoropyridin-4-yl)-2-methyl-6-piperazin-1-ylimidazo[1,2-b]pyridazine] displayed a melting point of 139 to 141 °C.

`CC(C)c1nc2ccc(N3CCNCC3)nn2c1-c1ccncc1` [Compound 9, 2-Isopropyl-6-piperazin-1-yl-3-pyridin-4-ylimidazo[1,2-b]pyridazine] showed a melting point of 199 to 201 °C.

For `c1cc(-c2c(C3CC3)nc3ccc(N4CCNCC4)nn23)ccn1` [Compound 11, 2-Cyclopropyl-6-piperazin-1-yl-3-pyridin-4-ylimidazo[1,2-b]pyridazine], the melting point fell in the range of 169 to 171 °C.

In the case of `CC(C)Cc1nc2ccc(N3CCNCC3)nn2c1-c1ccncc1` [Compound 16, 2-Isobutyl-6-piperazin-1-yl-3-pyridin-4-ylimidazo[1,2-b]pyridazine], the melting point was in the range of 92 to 119 °C.

In turn, `Cc1nc2ccc(N3CCN[C@H](C)C3)nn2c1-c1ccncc1` [Compound 26, 2-Methyl-6-((R)-3-methylpiperazin-1-yl)-3-pyridin-4-ylimidazo[1,2-b]pyridazine] displayed a melting point of 146 to 148 °C.

Compound `Cc1cc(-c2c(C)nc3ccc(N4CCN[C@H](C)C4)nn23)ccn1` [Compound 27, 2-Methyl-6-((R)-3-methylpiperazin-1-yl)-3-(2-methylpyridin-4-yl)imidazo[1,2-b]pyridazine] showed a melting point of 157 to 159 °C.

Compound `Cc1nc2ccc(N3CCN[C@H](C)C3)nn2c1-c1ccnc(N)c1` [Compound 28, 4-[2-Methyl-6-((R)-3-methylpiperazin-1-yl)imidazo[1,2-b]pyridazin-3-yl]pyridin-2-ylamine] came in with a melting point of 172 to 177 °C.

Take `Cc1nc2ccc(N3CCN[C@@H](C)C3)nn2c1-c1ccncc1` [Compound 35, 2-Methyl-6-((S)-3-methylpiperazin-1-yl)-3-pyridin-4-ylimidazo[1,2-b]pyridazine]: the melting point was 146 to 148 °C.

Take `COc1cc(-c2c(C)nc3ccc(N4CCN[C@@H](C)C4)nn23)ccn1` [Compound 36, 3-(2-Methoxypyridin-4-yl)-2-methyl-6-((S)-3-methylpiperazin-1-yl)imidazo[1,2-b]pyridazine]: the melting point was 106 to 108 °C.

The compound `Cc1nc2ccc(N3CCN[C@@H](C)C3)nn2c1-c1ccnc(N)c1` [Compound 38, 4-[2-Methyl-6-((S)-3-methylpiperazin-1-yl)imidazo[1,2-b]pyridazin-3-yl]pyridin-2-ylamine] had a melting point of 172 to 177 °C.

For `Cc1nc2ccc(N3CCN(C)CC3)nn2c1-c1ccncc1` [Compound 39, 2-Methyl-6-(4-methylpiperazin-1-yl)-3-pyridin-4-ylimidazo[1,2-b]pyridazine], the melting point lay within 150 to 152 °C.

Regarding `CN1CCN(c2ccc3nc(C(F)(F)F)c(-c4ccncc4)n3n2)CC1` [Compound 40, 6-(4-Methylpiperazin-1-yl)-3-pyridin-4-yl-2-trifluoromethylimidazo[1,2-b]pyridazine], the melting point fell in the range of 182 to 184 °C.

As to `Cc1nc2ccc(N3CCNC(CO)C3)nn2c1-c1ccncc1` (stereo not shown) [Compound 41, [4-(2-Methyl-3-pyridin-4-ylimidazo[1,2-b]pyridazin-6-yl)piperazin-2-yl]methanol], the melting point is 237 to 240 °C.

`CCN1CCN(c2ccc3nc(C)c(-c4ccnc(C)c4)n3n2)CC1` [Compound 43, 6-(4-Ethylpiperazin-1-yl)-2-methyl-3-(2-methylpyridin-4-yl)imidazo[1,2-b]pyridazine] registered a melting point of 144 to 146 °C.

Compound `Cc1cc(-c2c(C)nc3ccc(N4CCN(C(C)C)CC4)nn23)ccn1` [Compound 45, 6-(4-Isopropylpiperazin-1-yl)-2-methyl-3-(2-methylpyridin-4-yl)imidazo[1,2-b]pyridazine] yielded a melting point of 97 to 99 °C.

Compound `Cc1nc2ccc(N3CCN(C4CCC4)CC3)nn2c1-c1ccncc1` [Compound 47, 6-(4-Cyclobutylpiperazin-1-yl)-2-methyl-3-pyridin-4-ylimidazo[1,2-b]pyridazine] showed a melting point of 122 to 132 °C.

Turning to `Cc1nc2ccc(N3CCN(C4CCC4)CC3)nn2c1-c1ccnc(N)c1` [Compound 48, 4-[6-(4-Cyclobutylpiperazin-1-yl)-2-methylimidazo[1,2-b]pyridazin-3-yl]pyridin-2-ylamine], the melting point fell in the range of 132 to 144 °C.

Turning to `Cc1nc2ccc(N3CCNC(C)(C)C3)nn2c1-c1ccnc(CN)c1` [Compound 50, {4-[6-(3,3-Dimethylpiperazin-1-yl)-2-methylimidazo[1,2-b]pyridazin-3-yl]pyridin-2-yl}methylamine], the melting point lay within 151 to 156 °C.

Compound `Cc1cc(-c2c(C)nc3ccc(N4C[C@@H](C)N[C@@H](C)C4)nn23)ccn1` [Compound 55, 6-(cis-3,5-Dimethylpiperazin-1-yl)-2-methyl-3-(2-methylpyridin-4-yl)imidazo[1,2-b]pyridazine] displayed a melting point of 127 to 129 °C.

On to `Cc1nc2ccc(N3C[C@@H](C)N[C@@H](C)C3)nn2c1-c1ccnc(N)c1` [Compound 56, 4-[6-(cis-3,5-Dimethylpiperazin-1-yl)-2-methylimidazo[1,2-b]pyridazin-3-yl]pyridin-2-ylamine], for which the melting point was in the range of 213 to 215 °C.

Compound `CNc1cc(-c2c(C)nc3ccc(N4C[C@@H](C)N[C@@H](C)C4)nn23)ccn1` [Compound 57, {4-[6-(cis-3,5-Dimethylpiperazin-1-yl)-2-methylimidazo[1,2-b]pyridazin-3-yl]pyridin-2-yl}-methylamine] came in with a melting point of 111 to 126 °C.

Compound `Cc1cc(-c2c(C)nc3ccc(N4C[C@H]5CCN[C@@H]5C4)nn23)ccn1` [Compound 65, (R,S)-6-(Hexahydropyrrolo[3,4-b]pyrrol-5(1H)-yl)-2-methyl-3-(2-methylpyridin-4-yl)imidazo[1,2-b]pyridazine] yielded a melting point of 131 to 133 °C.

For the compound `Cc1nc2ccc(N3CC4CNCC4C3)nn2c1-c1ccnc(N)c1` (stereo not shown) [Compound 68, {4-[6-(Hexahydropyrrolo[3,4-c]pyrrol-2(1H)-yl)-2-methylimidazo[1,2-b]pyridazin-3-yl]pyridin-2-yl}amine], the melting point is > 155 °C (dec.).

As to `Cc1nc2ccc(N3CC4CN(C(C)C)CC4C3)nn2c1-c1ccncc1` (stereo not shown) [Compound 72, 6-(−5-Isopropylhexahydropyrrolo[3,4-c]pyrrol-2(1H)-yl)-2-methyl-3-pyridin-4-ylimidazo[1,2-b]-pyridazine], the melting point was in the range of 172 to 175 °C.

In turn, `Cc1nc2ccc(N3CC4CN(C(C)C)CC4C3)nn2c1-c1ccnc(N)c1` (stereo not shown) [Compound 73, 4-[6-(−5-Isopropylhexahydropyrrolo[3,4-c]pyrrol-2(1H)-yl)-2-methylimidazo[1,2-b]pyridazin-3-yl]pyridin-2-ylamine] registered a melting point of 215 to 218 °C.

`COc1cc(-c2c(C)nc3ccc(N4CC5CNCC5C4)nn23)ccn1` (stereo not shown) [Compound 74, 6-Hexahydropyrrolo[3,4-c]pyrrol-2(1H)-yl-3-(2-methoxypyridin-4-yl)-2-methylimidazo[1,2-b]-pyridazine] showed a melting point of 95 °C.

Consider `Cc1nc2ccc(N3C[C@H]4CCCN[C@@H]4C3)nn2c1-c1ccncc1` [Compound 75, (R,S)-2-Methyl-6-(octahydropyrrolo[3,4-b]pyridin-6-yl)-3-pyridin-4-ylimidazo[1,2-b]-pyridazine], for which the melting point lay within 130 to 135 °C.

In turn, `Cc1cc(-c2c(C)nc3ccc(N4CCC5(CC4)CNC5)nn23)ccn1` [Compound 76, 6-(2,7-Diazaspiro[3.5]non-7-yl)-2-methyl-3-(2-methylpyridin-4-yl)imidazo[1,2-b]pyridazine] displayed a melting point of 117 to 120 °C.

In turn, `Cc1nc2ccc(N3CCC(N4CCCC4)CC3)nn2c1-c1ccncc1` [Compound 82, 2-Methyl-3-pyridin-4-yl-6-(4-pyrrolidin-1-ylpiperidin-1-yl)imidazo[1,2-b]pyridazine] yielded a melting point of 150 to 153 °C.

`Cc1cc(-c2c(C)nc3ccc(N4CCC(N5CCCC5)CC4)nn23)ccn1` [Compound 83, 2-Methyl-3-(2-methylpyridin-4-yl)-6-(4-pyrrolidin-1-ylpiperidin-1-yl)imidazo[1,2-b]pyridazine]: the melting point fell in the range of 124 to 126 °C.

The compound `Cc1nc2ccc(N3CCC(N4CCCC4)CC3)nn2c1-c1ccnc(N)c1` [Compound 84, 4-[2-Methyl-6-(4-pyrrolidin-1-ylpiperidin-1-yl)imidazo[1,2-b]pyridazin-3-yl]pyridin-2-ylamine] returned a melting point of 129 to 138 °C.

Usually melting point stands for the temperature of the solid-liquid transition.
